In patent US12344618B2, “Heterotricyclic derivative compound and use of same” (HANMI PHARMACEUTICAL CO., LTD., priority 2019, dated 2025):
Read-outs that look alike come from different tables or passages of the source.

How the values were obtained:
[1] = tested on: KARPAS-422 (EZH2 Y641N mutation); experiment: Cell growth inhibition test, KARPAS-422; format: cell-based; conditions: KARPAS-422, culture time 7 days, read-out: Cell growth inhibitory activity (GI50, nM) KARPAS-422 (EZH2 Y641N mutation)
[2] = tested on: Pfeiffer (EZH2 A677G mutation); experiment: Cell growth inhibition test, Pfeiffer; format: cell-based; conditions: Homo sapiens, read-out: Cell growth inhibitory activity (GI50, nM) Pfeiffer (EZH2 A677G mutation)
Experimental: (§1) Each type of the cultured cells was seeded in 6-well plates or 48-96 well plates, and subculture or medium replacement was performed every 3 to 4 days. Next, the cells were subcultured for a total of 7 to 14 days, and then seeded in 96-well plates. 3 to 5 days before the measurement of the effect, the cells were seeded in 96-well plates, and then the absorbance (Tz) on the day of seeding was measured. The absorbance after the reaction was measured by the plate reader device Synergy NeoAlpha (Biotek) using Cell-Titer-Glo Cell Viability Assay (Promega, G7573) according to the attached manual. Based on the absorbance (Tz) measured on the seeding day and the absorbance of each of the DMSO-treated group (C) and the sample-added group (Ti) measured on the day of effect determination, the percentage of cell proliferation inhibition was calculated according to the following Equation 1. [(Ti−Tz)/(C−Tz)]×100 for concentrations for which Ti≥Tz […] for concentrations for which Ti<Tz. [Equation 1]

SU-DHL-4 = experiment: Cell growth inhibition test, SU-DHL-4; format: cell-based; conditions: Homo sapiens, read-out: Cell growth inhibitory activity (GI50, nM) SU-DHL-4
Experimental: (§2) In order to confirm the inhibitory effects of the synthetic compounds against the growth of blood cancer cell lines, evaluation was performed against KARPAS 422, RPMI 8226, KMS-11, JeKo-1, MV-4-11, Mino, Pfeiffer, SU-DHL-4, and RS4; 11 cell lines. A test for the Pfeiffer and SU-DHL-4 cell lines was performed by KYinno Co., Ltd., a test for the RS4; 11 cell line was performed by Shanghai Chempartner Co., Ltd., and a test for the Kasumi-1, MV-4-11, MM.1S, KMS-11, JeKo-1, Mino (ATCC), RPMI 8226 (KCLB), and KARPAS 422 (ECACC) cell lines was performed after purchase.
as §1, with “DMSO at a final concentration of 0.1% or less or a DMSO solution of each of the synthetic compounds was added to media to have the concentration and treatment time described in Table 5 below, and cells were cultured at 37° C. under 5% CO2. Each” for “Each”

RS4;11 = experiment: Cell growth inhibition test, RS4;11; format: cell-based; conditions: Homo sapiens, read-out: Cell growth inhibitory activity (GI50, nM) RS4;11
Experimental: as §2
as §1, with “DMSO at a final concentration of 0.1% or less or a DMSO solution of each of the synthetic compounds was added to media to have the concentration and treatment time described in Table 5 below, and cells were cultured at 37° C. under 5% CO2. Each” for “Each”

MV4-11 = experiment: Cell growth inhibition test, MV4-11; format: cell-based; conditions: Homo sapiens, 240 h; MV4-11, culture time 10 days; read-out: Cell growth inhibitory activity (GI50, nM) MV4-11
Experimental: as §2
as §1, with “DMSO at a final concentration of 0.1% or less or a DMSO solution of each of the synthetic compounds was added to media to have the concentration and treatment time described in Table 5 below, and cells were cultured at 37° C. under 5% CO2. Each” for “Each”

Kasumi-1 = experiment: Cell growth inhibition test, Kasumi-1; format: cell-based; conditions: Homo sapiens, 240 h; Kasumi-1, culture time 10 days; read-out: Cell growth inhibitory activity (GI50, nM) Kasumi-1
Experimental: as §2
as §1, with “DMSO at a final concentration of 0.1% or less or a DMSO solution of each of the synthetic compounds was added to media to have the concentration and treatment time described in Table 5 below, and cells were cultured at 37° C. under 5% CO2. Each” for “Each”

MM.1S = experiment: Cell growth inhibition test, MM.1S; format: cell-based; conditions: Homo sapiens, MM1.S, 264 h, culture time 11 days, read-out: Cell growth inhibitory activity (GI50, nM) MM.1S
Experimental: as §2
as §1, with “DMSO at a final concentration of 0.1% or less or a DMSO solution of each of the synthetic compounds was added to media to have the concentration and treatment time described in Table 5 below, and cells were cultured at 37° C. under 5% CO2. Each” for “Each”

RPMI8226 = experiment: Cell growth inhibition test, RPMI8226; format: cell-based; conditions: Homo sapiens, RPMI-8226, 168 h; RPMI8226, culture time 7 days; read-out: Cell growth inhibitory activity (GI50, nM) RPMI8226
Experimental: as §2
as §1, with “DMSO at a final concentration of 0.1% or less or a DMSO solution of each of the synthetic compounds was added to media to have the concentration and treatment time described in Table 5 below, and cells were cultured at 37° C. under 5% CO2. Each” for “Each”

KMS-11 = experiment: Cell growth inhibition test, KMS-11; format: cell-based; conditions: Homo sapiens, 240 h; KMS-11, culture time 10 days; read-out: Cell growth inhibitory activity (GI50, nM) KMS-11
Experimental: as §2
as §1, with “DMSO at a final concentration of 0.1% or less or a DMSO solution of each of the synthetic compounds was added to media to have the concentration and treatment time described in Table 5 below, and cells were cultured at 37° C. under 5% CO2. Each” for “Each”

Mino = experiment: Cell growth inhibition test, Mino; format: cell-based; conditions: Homo sapiens, 336 h, culture time 14 days, read-out: Cell growth inhibitory activity (GI50, nM) Mino
Experimental: as §2
as §1, with “DMSO at a final concentration of 0.1% or less or a DMSO solution of each of the synthetic compounds was added to media to have the concentration and treatment time described in Table 5 below, and cells were cultured at 37° C. under 5% CO2. Each” for “Each”

JeKo-1 = experiment: Cell growth inhibition test, JeKo-1; format: cell-based; conditions: Homo sapiens, 240 h; JeKo-1, culture time 10 days; read-out: Cell growth inhibitory activity (GI50, nM) JeKo-1
Experimental: as §2
as §1, with “DMSO at a final concentration of 0.1% or less or a DMSO solution of each of the synthetic compounds was added to media to have the concentration and treatment time described in Table 5 below, and cells were cultured at 37° C. under 5% CO2. Each” for “Each”

[3] = Metabolic stability in human liver microsomes; format: in vitro ADME; conditions: 5 μM compound, 1 mg/mL human liver microsomes, 37° C., NADPH regenerating system
[4] = Metabolic stability in dog liver microsomes; format: in vitro ADME; conditions: 5 μM compound, 1 mg/mL dog liver microsomes, 37° C., NADPH regenerating system
Experimental: (§3) In order to confirm the metabolic stability of the synthetic compounds in the liver, 5 μM test compound and 1 mg/mL human, dog, rat or mouse liver microsomes were allowed to react with each other at 37° C. in the presence of the NADPH regenerating system for 1 hour. After 1 hour, the reaction was terminated and the supernatant obtained by centrifugation was analyzed by HPLC. With the peak value obtained as the analysis result, the residual amount (%) was calculated using the following equation through the peak value of the test compound after 1 hour of the reaction versus the peak value of the test compound at 0 min. Residual amount (%)=(peak value of test compound after 1 hour of reaction/peak value of test compound at 0 min)×100

[5] = Metabolic stability in rat liver microsomes; format: in vitro ADME; conditions: 5 μM compound, 1 mg/mL rat liver microsomes, 37° C., NADPH regenerating system
Experimental: as §3

[6] = Metabolic stability in mouse liver microsomes; format: in vitro ADME; conditions: 5 μM compound, 1 mg/mL mouse liver microsomes, 37° C., NADPH regenerating system
[7] = Mouse pharmacokinetics, oral single dose; format: in vivo; conditions: male, ICR, mouse, plasma, po, 30 mg/kg, mice (ICR, male), oral single dose 30 mg/kg; for AUC: read-out: Area under oral curve (AUC); for half-life: read-out: Half life T1/2 (converted)
Experimental: Pharmacokinetics of the synthetic compounds as EZH2 inhibitors in mice (ICR, 8-week-old, male) were tested.
The oral administration group was maintained in a fasting state from the day before the test to 4 hours after administration of the test compound. On the day of administration of the test compound, the weight of each animal was measured and each synthetic compound was formulated using a selected solvent based on 30 mg/kg (10 mL/kg). Each test compound was administered orally in a single dose, a certain amount of the blood was taken at a predetermined time, plasma was isolated therefrom, and the concentration of each test compound in the plasma was analyzed using LC-MS/MS (Waters UPLC H-Class/Xevo TQ; Waters, USA). Pharmacokinetic coefficients were calculated by a linear-log trapezoidal summation formula using a non-compartment analysis of the Phoenix™ WinNonlin (Certara, USA) program through the plasma concentration curve over time.

Row | GI50 ([1]; Homo sapiens, KARPAS-422, 168 h) | GI50 (SU-DHL-4) | GI50 (RS4;11) | GI50 (MV4-11) | GI50 (MM.1S) | GI50 (RPMI8226) | Residual amount (%) of test compound after 1 hour of reaction, Human [3] | Residual amount (%) of test compound after 1 hour of reaction, Dog [4] | Residual amount (%) of test compound after 1 hour of reaction, Rat [5] | Residual amount (%) of test compound after 1 hour of reaction, Mouse [6] | AUC [7] | half-life [7] | GI50 [1] | SMILES | GI50 [2] | GI50 (Kasumi-1) | GI50 (KMS-11) | GI50 (Mino) | GI50 (JeKo-1)
1 | 1.3 to 15 nM | 21 nM | 62 nM | 6.1 nM | 2.3 nM | 7.8 nM | 65% | 83% | 81% | 50% | 3420 to 5000 ng·h/mL | 1 h |  | Cc1cc(C)c(CNC(=O)c2cc(Cl)c3c(c2C)O[C@@](C)([C@H]2CC[C@H](N(C)C)CC2)O3)c(=O)[nH]1 [Control B] | 0.57 nM | 324 nM | 25 nM | 2.5 nM | 71 nM
2 |  | 281 nM | 932 nM | 220 nM | 204 nM | 315 nM |  | 14% |  |  | 4880 ng·h/mL | 0.6 h |  | CCN(c1cc(-c2ccc(CN3CCOCC3)cc2)cc(C(=O)NCc2c(C)cc(C)[nH]c2=O)c1C)C1CCOCC1 [Control A, N-((4,6-dimethyl-2-oxo-1,2-dihydropyridin-3-yl)methyl)-5-(ethyl(tetrahydro-2H-pyran-4-yl)amino)-4-methyl-4′-(morpholinomethyl)-[1,1′-biphenyl]-3-carboxamide] |  | > 1000 nM | 554 nM | 225 nM | 3580 nM
3 |  | 11 nM | 24 nM | 3.9 nM | 1.4 nM | 6.4 nM | 67% | 74% | 84% | 52% | 9960 ng·h/mL | 2.9 h | 1.2 to 9.7 nM | Cc1cc(C)c(CN2CCc3c(Br)c4c(c(C)c3C2=O)OC(C)([C@H]2CC[C@H](N(C)C)CC2)O4)c(=O)[nH]1 (single isomer, unassigned) [Compound 49, 9-bromo-6-((4,6-dimethyl-2-oxo-1,2-dihydropyridin-3-yl)methyl)-2-(trans-4-(dimethylamino)cyclohexyl)-2,4-dimethyl-7,8-dihydro-[1,3]dioxolo[4,5-g]isoquinolin-5(6H)-one] | 0.21 nM | 51 nM | 8.1 nM | 2 nM | 42 nM
